Where a SMILES comes first, the peptide text is derived from it.

Assay type in all cases: functional
For test [1], the system named is Acinetobacter baumannii. Briefly: Antibacterial activity against Acinetobacter baumannii ATCC 19606 incubated for 18 hrs by visual inspection method.
The test system of test [2] is Staphylococcus aureus. Briefly: Antibacterial activity against Staphylococcus aureus ATCC 25923 incubated for 18 hrs by visual inspection method.
The test system of test [3] is Klebsiella pneumoniae. As to the kind of experiment: Antibacterial activity against Klebsiella pneumoniae ATCC 700603 incubated for 18 hrs by visual inspection method.
Test [4] deals with Staphylococcus epidermidis. Briefly: Antibacterial activity against Staphylococcus epidermidis ATCC 12228 incubated for 18 hrs by visual inspection method.
The subject of test [5] is Bacillus subtilis. As to the kind of experiment: Antibacterial activity against Bacillus subtilis ATCC 23857 incubated for 18 hrs by visual inspection method.
Test [6] deals with Escherichia coli. As to the kind of experiment: Antibacterial activity against Escherichia coli ATCC 25922 incubated for 18 hrs by visual inspection method.
Test [7] deals with Escherichia coli. Briefly: Antibacterial activity against ESBL Escherichia coli 3 incubated for 18 hrs by visual inspection method.
Test [8] has as its system Escherichia coli. Briefly: Antibacterial activity against ESBL Escherichia coli 4 incubated for 18 hrs by visual inspection method.
The subject of test [9] is Escherichia coli. As to the kind of experiment: Antibacterial activity against ESBL Escherichia coli 5 incubated for 18 hrs by visual inspection method.
Test [10] relates to Acinetobacter baumannii. Briefly: Antibacterial activity against multidrug resistant Acinetobacter baumannii 2 incubated for 18 hrs by visual inspection method.
The test system of test [11] is Acinetobacter baumannii. As to the kind of experiment: Antibacterial activity against multidrug resistant Acinetobacter baumannii 1 incubated for 18 hrs by visual inspection method.
For test [12], the system named is Acinetobacter baumannii. As to the kind of experiment: Antibacterial activity against multidrug resistant Acinetobacter baumannii 4 incubated for 18 hrs by visual inspection method.
Test [13] relates to Acinetobacter baumannii. Briefly: Antibacterial activity against multidrug resistant Acinetobacter baumannii 3 incubated for 18 hrs by visual inspection method.
The test system of test [14] is Escherichia coli. Briefly: Antibacterial activity against ESBL Escherichia coli 2 incubated for 18 hrs by visual inspection method.
Test [15] deals with Acinetobacter baumannii. Briefly: Antibacterial activity against multidrug resistant Acinetobacter baumannii 5 incubated for 18 hrs by visual inspection method.
Test [16] concerns Escherichia coli. Briefly: Antibacterial activity against ESBL Escherichia coli 1 incubated for 18 hrs by visual inspection method.

Regarding `CC[C@H](C)[C@H](NC(=O)[C@H](CC(C)C)NC(=O)[C@H](CS)NC(=O)[C@@H]1CCCN1C(=O)[C@H](CC(C)C)NC(=O)[C@@H](NC(=O)[C@H](CS)NC(=O)[C@H](Cc1ccccc1)NC(=O)[C@@H](N)Cc1c[nH]c2ccccc12)[C@@H](C)CC)C(=O)N[C@@H](Cc1ccccc1)C(=O)N[C@@H](CCCCN)C(=O)N[C@@H](Cc1c[nH]c2ccccc12)C(=O)N[C@@H](CCC(N)=O)C(N)=O` (H-WFCILPCLIFKWQ-NH2), the MIC in test [1], in test [2], in [3], in test [4], in test [5] and in [6] was greater than 60 µg/mL throughout.

As for `CC[C@H](C)[C@H](NC(=O)[C@H](CCCNC(=N)N)NC(=O)[C@H](Cc1c[nH]c2ccccc12)NC(=O)[C@@H](NC(=O)[C@H](Cc1c[nH]cn1)NC(=O)[C@H](Cc1c[nH]c2ccccc12)NC(=O)[C@@H](N)Cc1c[nH]c2ccccc12)[C@@H](C)CC)C(=O)N[C@@H](CO)C(=O)N[C@@H](CCSC)C(=O)N[C@@H](Cc1c[nH]c2ccccc12)C(=O)N[C@@H](CCSC)C(=O)N[C@@H](CS)C(=O)NCC(N)=O` (H-WWHIWRISMWMCG-NH2), the MIC in test [1], in [2], in [3], in [4], in test [5] and in test [6] was greater than 60 µg/mL in each case.

Turning to `CC[C@H](C)[C@H](NC(=O)[C@H](CCCCN)NC(=O)[C@H](Cc1c[nH]c2ccccc12)NC(=O)[C@H](C)NC(=O)[C@@H]1CCCN1C(=O)[C@H]1CCCN1C(=O)[C@@H](CC(C)C)NC(=O)[C@H](N)C(C)C)C(=O)N[C@@H](CCCCN)C(=O)N[C@@H](CCCCN)C(=O)NCC(=O)N[C@@H](Cc1ccccc1)C(=O)N[C@@H](CCC(N)=O)C(N)=O`, the minimum inhibitory concentration (MIC) in [1], in [2], in test [3], in test [4], in [5] and in test [6] was greater than 60 µg/mL throughout.

As to GRAMICIDIN, the results for the minimum inhibitory concentration (MIC) in test [2], in test [4] and in test [5] were 1.88 µg/mL, 3.75 µg/mL and 3.75 µg/mL, respectively.

In the case of `CC[C@H](C)[C@H](N)C(=O)N[C@H](C(=O)N[C@@H](Cc1ccccc1)C(=O)N[C@@H](CC(C)C)C(=O)N[C@H](C(=O)N[C@@H](CO)C(=O)NCC(=O)N[C@@H](Cc1ccccc1)C(=O)N[C@@H](CCCCN)C(=O)N[C@@H](CS)C(=O)N[C@@H](Cc1ccccc1)C(=O)N[C@@H](CCCCN)C(=O)NCC(N)=O)[C@@H](C)CC)C(C)C` (H-IVFLISGFKCFKG-NH2), the minimum inhibitory concentration (MIC) in [1], in test [2], in test [3], in [4], in [5] and in test [6] was greater than 60 µg/mL throughout.

On to `CSCC[C@H](NC(=O)[C@H](Cc1c[nH]c2ccccc12)NC(=O)[C@H](CCSC)NC(=O)[C@H](Cc1c[nH]c2ccccc12)NC(=O)[C@@H](NC(=O)[C@H](Cc1c[nH]c2ccccc12)NC(=O)[C@H](Cc1c[nH]c2ccccc12)NC(=O)[C@H](CCSC)NC(=O)[C@H](CCCCN)NC(=O)[C@H](CS)NC(=O)CNC(=O)[C@H](Cc1ccccc1)NC(=O)[C@@H](N)CO)C(C)C)C(N)=O` (H-SFGCKMWWVWMWM-NH2), for which the MIC in [1], in test [2], in [3], in [4], in test [5] and in [6] was greater than 60 µg/mL in each case.

For the compound POLYMYXIN B, the MIC in test [7], in test [1], in test [8], in test [9], in test [10] and in test [11] was 1.88 µg/mL each time. Moreover, the MIC in [12], in test [3], in test [13], in test [14], in test [15] and in test [16] was 1.88 µg/mL throughout. Besides, in test [6], the MIC (commonly the lowest concentration found to suppress growth) is 1.88 µg/mL.

Consider `CC[C@H](C)[C@H](NC(=O)CNC(=O)[C@@H](NC(=O)[C@H](Cc1ccccc1)NC(=O)[C@@H](NC(=O)[C@H](Cc1c[nH]cn1)NC(=O)[C@H](Cc1c[nH]c2ccccc12)NC(=O)[C@@H](NC(=O)[C@@H]1CCCN1)[C@@H](C)O)[C@@H](C)CC)[C@@H](C)CC)C(=O)N[C@@H](Cc1c[nH]c2ccccc12)C(=O)N[C@@H](CO)C(=O)N[C@@H](CS)C(=O)N[C@@H](Cc1c[nH]c2ccccc12)C(N)=O` (H-PTWHIFIGIWSCW-NH2), for which the MIC in [1], in test [2], in test [3], in [4], in test [5] and in test [6] was greater than 60 µg/mL in each case.

`CC[C@H](C)[C@H](NC(=O)[C@H](C)NC(=O)[C@H](Cc1c[nH]c2ccccc12)NC(=O)[C@H](CCCCN)NC(=O)[C@H](C)NC(=O)CNC(=O)[C@@H](NC(=O)[C@@H](N)CO)[C@@H](C)CC)C(=O)N[C@@H](Cc1c[nH]c2ccccc12)C(=O)N[C@@H](Cc1c[nH]c2ccccc12)C(=O)N[C@@H](Cc1c[nH]c2ccccc12)C(=O)N[C@@H](CCSC)C(=O)N[C@H](C(N)=O)C(C)C` (H-SIGAKWAIWWWMV-NH2): the minimal inhibitory concentration (MIC) in [1], in [2], in test [3], in test [4], in [5] and in test [6] was greater than 60 µg/mL throughout.

As for `CC(C)C[C@H](NC(=O)[C@H](CCCCN)NC(=O)[C@H](CS)NC(=O)[C@H](CS)NC(=O)[C@@H](NC(=O)CNC(=O)[C@@H](NC(=O)[C@H](Cc1ccccc1)NC(=O)[C@H](CCC(N)=O)NC(=O)[C@H](CS)NC(=O)[C@@H](N)Cc1c[nH]c2ccccc12)C(C)C)C(C)C)C(=O)N[C@@H](CS)C(=O)N[C@H](C(N)=O)C(C)C` (H-WCQFVGVCCKLCV-NH2), the MIC in test [1], in test [2], in test [3], in test [4], in [5] and in test [6] was greater than 60 µg/mL throughout.

Take `CC[C@H](C)[C@H](NC(=O)[C@@H](N)Cc1c[nH]c2ccccc12)C(=O)N[C@@H](Cc1c[nH]c2ccccc12)C(=O)N[C@H](C(=O)N[C@@H](Cc1ccccc1)C(=O)N[C@@H](CCCCN)C(=O)N[C@@H](Cc1c[nH]cn1)C(=O)N[C@@H](CC(C)C)C(=O)NCC(=O)N[C@@H](CS)C(=O)N[C@@H](CCC(N)=O)C(=O)N[C@@H](CCCCN)C(=O)N[C@@H](CCC(N)=O)C(N)=O)[C@@H](C)O` (H-WIWTFKHLGCQKQ-NH2): the MIC in [1], in [2], in [3], in test [4], in [5] and in [6] was greater than 60 µg/mL in each case.

The values are drawn from ChEMBL document CHEMBL5614417, “Discovery of AMPs from random peptides via deep learning-based model and biological activity validation” (Eur J Med Chem, 2024).
